The target in one series is T1, MMP-1 (Homo sapiens, UniProt P03956).
T1 sequence (P03956 100-469): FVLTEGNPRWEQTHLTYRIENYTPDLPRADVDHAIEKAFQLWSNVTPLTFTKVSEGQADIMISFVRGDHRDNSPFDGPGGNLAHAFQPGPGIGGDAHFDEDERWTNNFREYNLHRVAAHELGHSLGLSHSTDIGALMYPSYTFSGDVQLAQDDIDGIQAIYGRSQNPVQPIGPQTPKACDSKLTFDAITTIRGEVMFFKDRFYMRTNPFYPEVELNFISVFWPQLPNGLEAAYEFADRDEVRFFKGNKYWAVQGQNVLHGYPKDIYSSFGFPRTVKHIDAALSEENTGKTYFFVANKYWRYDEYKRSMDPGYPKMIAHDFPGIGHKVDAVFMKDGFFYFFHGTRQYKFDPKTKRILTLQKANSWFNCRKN
Kind of series: MMP-1 inhibition (thiopeptide or fluorescent peptide substrate). In kind it is biochemical. Conditions: read-out: MMP-1 IC50.

For series [1], the target named is TNF-α converting enzyme (TACE) (Homo sapiens, UniProt P78536). Kind of series: TACE inhibition (fluorescent peptidyl substrate). In kind it is biochemical. The settings on record: read-out: TACE IC50.
For another series, the target named is MMP-13 (Homo sapiens, UniProt P45452). Put plainly: MMP-13 inhibition (thiopeptide or fluorescent peptide substrate). Conditions: read-out: MMP-13 IC50. In kind it is biochemical.

Counter-ions that a name gives are not always drawn. Like-named read-outs stand apart in the source and are kept apart here.

In general, melting point refers to the temperature, or range, at which the solid turns liquid. A word on the IC50: it is the concentration that inhibits the measured activity by half.

TNF-α converting enzyme (TACE), sequence (P78536 215-824, species assumed): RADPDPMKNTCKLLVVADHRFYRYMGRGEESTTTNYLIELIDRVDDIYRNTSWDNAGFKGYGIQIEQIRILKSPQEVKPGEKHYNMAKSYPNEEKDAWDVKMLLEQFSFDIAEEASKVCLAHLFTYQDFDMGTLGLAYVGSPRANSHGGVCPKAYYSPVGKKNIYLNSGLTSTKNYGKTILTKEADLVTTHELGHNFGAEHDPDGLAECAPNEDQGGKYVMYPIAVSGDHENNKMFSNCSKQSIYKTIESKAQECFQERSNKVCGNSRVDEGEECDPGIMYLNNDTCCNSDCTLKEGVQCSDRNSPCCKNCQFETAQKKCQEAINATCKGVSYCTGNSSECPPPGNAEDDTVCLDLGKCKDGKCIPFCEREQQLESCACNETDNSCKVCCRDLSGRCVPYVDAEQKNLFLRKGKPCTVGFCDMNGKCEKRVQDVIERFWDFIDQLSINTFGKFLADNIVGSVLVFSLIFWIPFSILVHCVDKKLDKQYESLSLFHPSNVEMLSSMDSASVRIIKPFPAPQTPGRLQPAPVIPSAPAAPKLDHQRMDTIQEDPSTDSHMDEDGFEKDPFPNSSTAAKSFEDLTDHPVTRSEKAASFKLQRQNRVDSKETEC

With `CC#CCOc1ccc(S(=O)(=O)N(C)C(C(=O)NO)C(C)(C)SCCN2CCOCC2)cc1` (stereo not shown) (as salt: hydrochloride) [Example 140, 2-({[4-(2-Butynyloxy)phenyl]sulfonyl)(methyl)amino]-N-hydroxy-3 Methyl-3-[(2(4-morpholinylethyl)sulfanyl]-butanamide Hydrochloride], the melting point was 50 °C (dec.).
Still for that read-out and setting: as for `CC#CCOc1ccc(S(=O)(=O)N(C)C(C(=O)NO)C(C)(C)SCCn2ccnc2)cc1` (stereo not shown) (as salt: hydrochloride) [Example 144, 2-({[4-(2-Butynyloxy)phenyl]sulfonyl)(methyl)amino]-N-hydroxy-3 Methyl-3-{[2-(1H-imidazol-1-yl)ethyl]sulfanyl}butanamide], the figure is 67 to 70 °C; as for `CC#CCOc1ccc(S(=O)(=O)NC(C(=O)NO)c2ccc(OCCN3CCCC3)cc2)cc1` (stereo not shown) (as salt: hydrochloride) [Example 205, 2-({[4-(2-Butynyloxy)phenyl]sulfonyl}amino)-N-hydroxy-2-{4-[2-(1-pyrrolidinyl)ethoxy]phenyl}acetamide], 70 °C.
Still for that read-out and setting: then `CC#CCOc1ccc(S(=O)(=O)N2CCSC3(CCN(Cc4ccccc4)CC3)C2C(=O)NO)cc1` (stereo not shown) (as salt: hydrochloride) [Example 241, 9-Benzyl-4-{[4-(2-butynyloxy)phenyl]sulfonyl}-N-hydroxy-1-thia-4,9-diazaspiro[5.5]undecane-5-carboxamide], with 151 to 153 °C; and `CC#CCOc1ccc(S(=O)(=O)NC(C(=O)NO)C(C)(C)SCC(=O)O)cc1` (stereo not shown) (as salt: sodium) [Example 166, tert-Butyl {[2-({[4-2-Butynyloxy)phenyl]sulfonyl}amino)-3-(hydroxyamino)-1,1-dimethyl-3-oxopropyl]sulfanyl Acetic Acid, Sodium Salt], with 75 °C (dec.).
Regarding `CC#CCOc1ccc(S(=O)(=O)N(C)C(C(=O)NO)C(C)(C)SCCN2CCCC2)cc1` (stereo not shown) [Example 143, 2-({[4-(2-Butynyloxy)phenyl]sulfonyl)(methyl)amino]-N-hydroxy-3 Methyl-3-{[2(1-pyrrolidinyl)ethyl]sulfanyl}butanamide], the melting point lay within 55 to 57 °C.
Same read-out and setting: then `CC#CCOc1ccc(S(=O)(=O)N(C)C(C(=O)NO)C(C)(C)SCC(C)N(CC)CC)cc1` (stereo not shown) [Example 148, 2-({[4-(2-Butynyloxy)phenyl]sulfonyl)(methyl)amino]-N-hydroxy-3 Methyl-3-{[2-(diethylamino)propyl]sulfanyl}butanamide], with 65 to 68 °C.
`CC#CCOc1ccc(S(=O)(=O)N(C)C(C(=O)NO)c2ccc(OCCCNC(=O)OCC)cc2)cc1` (stereo not shown) [Example 193, Ethyl 3-{4-[1-[{[4-(2-Butynyloxy)phenyl]sulfonyl}(methyl)amino]-2-(hydroxyamino)-2-oxoethyl]phenoxy}propylcarbamate]: the melting point lay within 60 to 62 °C. For the same compound, at MMP-1, the IC50 was roughly 1000 nM. In series [1], the IC50 was 61 nM. In addition, the IC50 at MMP-13 is 29.3 nM.
Consider `CC#CCOc1ccc(S(=O)(=O)N(C)C(C(=O)NO)c2ccc(OCCCNC(C)=O)cc2)cc1` (stereo not shown) [Example 194], for which the melting point is 88 °C (dec.). Also, on MMP-1, the IC50 was found to be 592 nM. In addition, in series [1], the IC50 worked out at 61 nM. Further, the IC50 at MMP-13 was 15 nM.
For `CC#CCOc1ccc(S(=O)(=O)N(C)C(C(=O)NO)c2ccc(OCCCNC(=O)OCCCC)cc2)cc1` (stereo not shown) [Example 195, Butyl 3-{4-[1-[{[4-(2-Butynyloxy)phenyl]sulfonyl}(methyl)amino]-2-(hydroxyamino)-2-oxoethyl]phenoxy}propylcarbamate], in that order: 50 to 55 °C, greater than 1000 nM, 122 nM and 28 nM.
For the compound `CC#CCOc1ccc(S(=O)(=O)N(C)C(C(=O)NO)c2ccc(OCCCNC(=O)OCc3ccccc3)cc2)cc1` (stereo not shown) [Example 196, Benzyl 3-{4-[1-[{[4-(2-Butynyloxy)phenyl]sulfonyl}(methyl)amino]-2-(hydroxyamino)-2-oxoethyl]phenoxy}propylcarbamate], the melting point lay within 48 to 50 °C. In addition, in series [1], the IC50 worked out at 109 nM. The IC50 at MMP-13 is 31 nM.
In the case of `CC#CCOc1ccc(S(=O)(=O)N(C)C(C(=O)NO)c2ccc(OCCCNS(C)(=O)=O)cc2)cc1` (stereo not shown) [Example 197, 2-[{[4-(2-Butynyloxy)phenyl]sulfonyl}(methyl)amino]-N-hydroxy-2-(4-{3-[(methylsulfonyl)amino]propoxy}phenyl)acetamide], the melting point fell in the range of 65 to 70 °C. The IC50 on MMP-1 is 569 nM. Besides, the IC50 in series [1] came to 25 nM. The IC50 on MMP-13 was found to be 24 nM.
For `CC#CCOc1ccc(S(=O)(=O)N(C)C(C(=O)NO)c2ccc(OCCCNC(=O)Nc3ccccc3)cc2)cc1` (stereo not shown) [Example 198, 2-(4-{3-[(Anilinocarbonyl)amino]propoxy}phenyl)-2-[{[4-(2-butynyloxy)phenyl]sulfonyl}(methyl)amino]-N-hydroxyacetamide], in that order: 135 °C (dec.), 834 nM, 62 nM and 11 nM.
For `CC#CCOc1ccc(S(=O)(=O)NC(C(=O)NO)c2ccc(OCCN3CCN(C(=O)OC(C)(C)C)CC3)cc2)cc1` (stereo not shown) [Example 202, tert-Butyl 4-(2-{4-[1-({[4-(2-Butynyloxy)phenyl]sulfonyl}amino)-2-(hydroxyamino)-2-oxoethyl)phenoxy]ethyl)-1-piperazinecarboxylate], in that order: 92 to 95 °C, greater than 10000 nM, 113 nM and 345 nM.
For `CC#CCOc1ccc(S(=O)(=O)NC(C(=O)NO)c2ccc(OCCN3CCOCC3)cc2)cc1` (stereo not shown) [Example 206, 2-({[4-(2-Butynyloxy)phenyl]sulfonyl}amino)-N-hydroxy-2-{4-[2-(4-morpholinyl)ethoxy]phenyl}acetamide], in that order: 80 to 86 °C, greater than 10000 nM, 33 nM and 147 nM.
`CC#CCOc1ccc(S(=O)(=O)N(C)C(C(=O)NO)c2ccc(Cl)cc2)cc1` (stereo not shown) [Example 212, 2-[{[4-(2-Butynyloxy)phenyl]sulfonyl}(methyl)amino]-2-(4-chlorophenyl)-N-hydroxyacetamide]: the melting point lay in the range of 170 to 172 °C. Also, at MMP-1, the IC50 turned out to be 798 nM. Further, in series [1], the IC50 was determined as 62 nM. Further, on MMP-13, the 50% inhibitory concentration (IC50) stood at 36 nM.
For `CC#CCOc1ccc(S(=O)(=O)N(C)C(CCCSc2ccc(Cl)cc2)C(=O)NO)cc1` (stereo not shown) [Example 213, 2-[{[4-(2-Butynyloxy)phenyl]sulfonyl}(methyl)amino]-5[(4-chlorophenyl)sulfanyl]-N-hydroxypentanamide], in that order: 144 to 145.5 °C, 453 nM, 210 nM and 9 nM.
Compound `CC#CCOc1ccc(S(=O)(=O)N2CCSC3(CCN(C)CC3)C2C(=O)NO)cc1` (stereo not shown) [Example 242, 9-Methyl-4-{[4-(2-butynyloxy)phenyl]sulfonyl}-N-hydroxy-1-thia-4,9-diazaspiro[5.5]undecane-5-carboxamide] registered a melting point of 195 to 198 °C. The IC50 in series [1] (Table 9) was found to be 869 nM.
Compound `CC#CCOc1ccc(S(=O)(=O)N2CCSCCC2C(=O)NO)cc1` (stereo not shown) [Example 294, 4-{[4-(2-Butynyloxy)phenyl]sulfonyl}-N-hydroxy-1,4-thiazepine-5-carboxamide] had a melting point of 95 to 98 °C.

For the origin of these results see patent US6716833B2, “Acetylenic α-amino acid-based sulfonamide hydroxamic acid tace inhibitors” (priority 1999, dated 2004).
